# Data from patent US7094911B2, “Biphenyl and biphenyl-analogous compounds as integrin antagonists” (Bayer Aktiengesellschaft, priority 1998, dated 2006).
# Target: αvβ3 receptor
# Assay: not given
# Conditions: WO 98/00395, second value; cited from earlier work
row,SMILES,IC50 [nM]
1,CC1(C)C2CCC1(CS(=O)(=O)NC(Cc1ccc(OCCCC(=O)NC(=N)N)cc1)C(=O)O)C(=O)C2 (stereo not drawn) [(I)],0.16

# System: smooth muscle cells
# Assay: Smooth muscle cell (SMC) migration test
# Type: cell-based, humans or rats
# Conditions: horizontal migration on vitronectin-coated plates, 24 hours; human or rat cells not specified
# Protocol: b) Smooth Muscle Cell (SMC) Migration Test
# Smooth muscle cells from humans or rats were used. The migration of the cells was determined in a horizontal measuring arrangement (Falcon).
# The horizontal migration was determined in 6-well plates coated with vitronectin (1 μg/cm^2). The cells were suspended in a medium (DMEM:F12/0, 12% BSA-rat smooth muscle cells or MCDB 131 with 0.2% BSA-human smooth muscle cells), inoculated and allowed to grow to confluence. Half of the smooth muscle cell lawn was then scraped off, and the cells were treated with different concentrations of the test compounds. The mixtures were incubated for 24 hours at 37° C. in the presence of 5% CO2 After the incubation, the smooth muscle cell migration was determined by measurement of the migration distance and the cell density of the migrated cells.
row,IC50 [nM],SMILES
1,3 to 40,"CC1(C)[C@@H]2CC[C@@]1(CS(=O)(=O)N[C@@H](Cc1ccc(-c3cccc(NC(=O)Nc4cccnc4)c3)cc1)C(=O)O)C(=O)C2 [Example 1.73, (2S)-3-[3′-(3-Pyridin-3-yl-ureido)-biphenyl-4-yl]-2-[(S)-campher-10-yl-sulfonylamino]-propanoic acid]"

# System: not given
# Assay: not given
# Conditions: not given
row,melting point,SMILES
1,> 240 °C,O=C(O)[C@H](Cc1ccc(-c2cccc(CNc3ccccn3)c2)cc1)NS(=O)(=O)c1c(Cl)cccc1Cl [Example 18.13]
2,> 240 °C,O=C(O)[C@H](Cc1ccc(-c2cccc(CNc3ccccn3)c2)cc1)NS(=O)(=O)c1ccc(Cl)s1 [Example 18.14]
3,140 °C (dec.),Cc1cc(C)c(S(=O)(=O)N[C@@H](Cc2ccc(-c3cccc(NC(=O)c4ccc[nH]4)c3)cc2)C(=O)O)c(C)c1 [Example 19.2]
4,234 °C,COc1ccc(-c2cccc(NC(=O)c3ccc[nH]3)c2)cc1S(=O)(=O)NC(CC(=O)O)c1ccccc1 (stereo not drawn) [Example 19.3]
5,> 240 °C,Cc1cc(C)c(S(=O)(=O)N[C@@H](Cc2ccc(-c3cccc(NC(=O)c4cccnc4)c3)cc2)C(=O)O)c(C)c1 [Example 19.4]
6,> 200 °C,COc1ccc(-c2cccc(NC(=O)c3ncc[nH]3)c2)cc1S(=O)(=O)NC(CC(=O)O)c1ccccc1 (stereo not drawn) [Example 19.5]
7,207 °C,CC1(C)C2CC[C@@]1(CS(=O)(=O)N[C@@H](Cc1ccc(-c3cccc(Nc4ncccc4[N+](=O)[O-])c3)cc1)C(=O)O)C(=O)C2 [Example 20.3]
8,> 240 °C,COc1ccc(-c2cccc(Nc3ncccc3N)c2)cc1S(=O)(=O)NC(CC(=O)O)c1ccccc1 (stereo not drawn) [Example 20.4]
9,> 240 °C,COc1ccc(-c2cccc(Nc3ccccn3)c2)cc1S(=O)(=O)NC(CC(=O)O)c1ccccc1 (stereo not drawn) [Example 20.5]

# Target: T1, ανβ3 receptor (Homo sapiens, UniProt P05106+P06756)
# T1 construct: ανβ3 from human A375 cells were purified according to a procedure described by Wong et al; endogenous in cells; host or cells: human A375 cells (receptor purified from the cells, detergent-solubilised)
# Assay: Binding to the αvβ3 receptor (echistatin SPA)
# Conditions: ανβ3 purified from human A375 cells, labelled echistatin, WGA SPA beads; read-out: avb3 IC50
# Protocol: Biological Investigations a) Binding to the ανβ3 Receptor
# 10 μl ανβ3 (5 ng) in TBS pH 7.6, 2 mM CaCl2, 1 mM MgCl2, 1% n/octylglucopyranoside; 10 μl of the substance to be tested in TBS pH 7.6, 0.1% dimethylsulfoxide (DMSO), and 45 μl TBS pH 7.6, 2 mM CaCl2, 1 MM MgCl2, 1 mM MnCl2 were each incubated for 1 h at room temperature.
# T1 sequence (P06756 31-889 limits assumed): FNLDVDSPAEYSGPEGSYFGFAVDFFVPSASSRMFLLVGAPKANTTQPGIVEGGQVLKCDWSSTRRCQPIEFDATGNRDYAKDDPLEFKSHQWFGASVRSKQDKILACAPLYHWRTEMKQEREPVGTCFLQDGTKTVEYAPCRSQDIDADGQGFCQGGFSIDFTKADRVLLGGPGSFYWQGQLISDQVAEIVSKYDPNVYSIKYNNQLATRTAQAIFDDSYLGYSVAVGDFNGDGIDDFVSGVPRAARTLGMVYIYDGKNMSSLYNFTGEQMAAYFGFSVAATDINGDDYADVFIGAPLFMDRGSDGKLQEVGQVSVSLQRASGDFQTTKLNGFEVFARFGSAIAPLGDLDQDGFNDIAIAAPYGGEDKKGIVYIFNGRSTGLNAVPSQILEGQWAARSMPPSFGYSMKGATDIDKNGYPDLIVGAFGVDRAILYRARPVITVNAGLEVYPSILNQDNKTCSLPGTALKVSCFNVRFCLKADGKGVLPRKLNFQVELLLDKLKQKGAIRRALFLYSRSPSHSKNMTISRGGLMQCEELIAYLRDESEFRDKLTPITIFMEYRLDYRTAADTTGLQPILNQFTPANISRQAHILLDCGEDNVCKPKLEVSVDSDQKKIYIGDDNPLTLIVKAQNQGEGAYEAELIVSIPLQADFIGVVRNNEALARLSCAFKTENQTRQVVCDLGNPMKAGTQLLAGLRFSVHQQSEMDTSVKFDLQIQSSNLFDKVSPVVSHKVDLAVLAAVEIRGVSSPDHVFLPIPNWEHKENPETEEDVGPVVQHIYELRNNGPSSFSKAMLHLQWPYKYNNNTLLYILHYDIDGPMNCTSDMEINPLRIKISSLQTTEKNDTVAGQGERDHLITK
# T1 sequence (P06756 891-1048 partner limits assumed): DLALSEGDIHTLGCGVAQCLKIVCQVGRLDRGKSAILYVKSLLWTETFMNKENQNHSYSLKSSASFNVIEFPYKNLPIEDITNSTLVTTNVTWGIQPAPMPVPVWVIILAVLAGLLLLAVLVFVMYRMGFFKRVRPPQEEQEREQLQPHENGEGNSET
# T1 sequence (P05106 27-788): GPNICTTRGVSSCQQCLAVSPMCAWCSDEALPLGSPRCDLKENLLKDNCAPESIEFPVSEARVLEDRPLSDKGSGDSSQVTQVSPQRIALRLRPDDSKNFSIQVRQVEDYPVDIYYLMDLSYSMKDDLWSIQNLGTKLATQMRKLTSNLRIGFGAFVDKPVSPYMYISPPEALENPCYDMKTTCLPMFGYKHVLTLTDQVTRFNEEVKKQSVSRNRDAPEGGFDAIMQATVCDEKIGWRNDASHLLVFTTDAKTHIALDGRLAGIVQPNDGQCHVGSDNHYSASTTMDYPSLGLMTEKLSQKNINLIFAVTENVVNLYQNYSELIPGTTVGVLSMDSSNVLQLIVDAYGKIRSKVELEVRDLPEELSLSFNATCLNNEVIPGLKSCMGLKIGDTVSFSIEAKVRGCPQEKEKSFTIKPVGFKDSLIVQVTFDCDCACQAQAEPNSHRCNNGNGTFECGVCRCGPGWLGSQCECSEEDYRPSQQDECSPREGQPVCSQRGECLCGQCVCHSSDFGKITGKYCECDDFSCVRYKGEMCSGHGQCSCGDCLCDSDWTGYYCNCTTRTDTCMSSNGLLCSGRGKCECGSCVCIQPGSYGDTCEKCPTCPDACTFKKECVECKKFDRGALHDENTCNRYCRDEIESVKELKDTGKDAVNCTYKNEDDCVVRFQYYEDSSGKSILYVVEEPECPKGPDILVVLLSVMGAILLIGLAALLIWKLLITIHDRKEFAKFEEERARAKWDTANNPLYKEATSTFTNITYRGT
row,IC50 [nM],SMILES
1,2,"CC1(C)[C@@H]2CC[C@@]1(CS(=O)(=O)N[C@@H](Cc1ccc(-c3cccc(NC(=O)Nc4cccnc4)c3)cc1)C(=O)O)C(=O)C2 [Example 1.73, (2S)-3-[3′-(3-Pyridin-3-yl-ureido)-biphenyl-4-yl]-2-[(S)-campher-10-yl-sulfonylamino]-propanoic acid]"
